Data taken from patent US11083725B2 (priority 2014, dated 2021).

System: NHBE cells
Assay: Biolog metabolic array: substrate use by NHBE cells with or without CA09 infection
Assay type: cell-based, human
Conditions: for Substrate use, 590 nm absorbance normalized to zero hour, 1 hr: Biolog PMM2, 1 hr; for Substrate use, 590 nm absorbance normalized to zero hour, 5 hr: Biolog PMM2, 5 hr; for Substrate use, 590 nm absorbance normalized to zero hour, 7 hr: Biolog PMM2, 7 hr
[1] = Control (uninfected) NHBE cells
[2] = Virus (CA09-infected, MOI 1) NHBE cells
[3] = Virus: CA09-infected NHBE cells, MOI 1, Biolog PMM2
[4] = Virus (CA09, MOI 1) infected NHBE cells
[5] = Virus (CA09-infected NHBE cells, MOI 1)

In the case of `OC[C@H]1O[C@@H](O[C@@H]2[C@@H](CO)OC(O)(CO)[C@H]2O)[C@H](O)[C@@H](O)[C@H]1O` (mixture of isomers) [Lactulose], the “590 nm absorbance normalized to zero hour (substrate use), 1 hr” value [1] is reported as 1.71, the “590 nm absorbance normalized to zero hour (substrate use), 2 hr” value (“590 nm absorbance normalized … 2 hr” below) [1] is reported as 2.30 and the “590 nm absorbance normalized to zero hour (substrate use), 3 hr” value (shortened to “590 nm absorbance normalized … 3 hr”) [1] is reported as 2.70. The “590 nm absorbance normalized to zero hour (substrate use), 4 hr” value (“590 nm absorbance normalized … 4 hr” for short) [1] was 2.88, the “590 nm absorbance normalized to zero hour (substrate use), 6 hr” value (“590 nm absorbance normalized … 6 hr” below) [1] was 3.78 and the “590 nm absorbance normalized to zero hour (substrate use), 8 hr” value (shortened to “590 nm absorbance normalized … 8 hr”) [1] was 4.04. For the same compound, the “590 nm absorbance normalized to zero hour (substrate use), 9 hr” value (“590 nm absorbance normalized … 9 hr” for short) [1] was 4.27, the “590 nm absorbance normalized to zero hour (substrate use), 10 hr” value (“590 nm absorbance normalized … 10 hr” below) [1] was 4.46 and the “590 nm absorbance normalized to zero hour (substrate use), 11 hr” value (“590 nm absorbance normalized … 11 hr” below) [1] was 5.14. The “Substrate use, 590 nm absorbance normalized to zero hour, 1 hr” value [1] was 1.71, the “Substrate use, 590 nm absorbance normalized to zero hour, 5 hr” value [1] was 3.40 and the “Substrate use, 590 nm absorbance normalized to zero hour, 7 hr” value [1] was 3.82. The “590 nm absorbance normalized to zero hour (substrate use), 1 hr” value [2] was 1.68, the “590 nm absorbance normalized … 2 hr” value [2] was 2.24 and the “590 nm absorbance normalized … 3 hr” value [2] was 2.56. For the same compound, the “590 nm absorbance normalized … 4 hr” value [2] was 2.71, the “590 nm absorbance normalized to zero hour (substrate use), 5 hr” value [2] was 3.13 and the “590 nm absorbance normalized … 6 hr” value [2] was 3.31. The “590 nm absorbance normalized to zero hour (substrate use), 7 hr” value [2] was 3.50, the “590 nm absorbance normalized … 8 hr” value [2] was 3.70 and the “590 nm absorbance normalized … 9 hr” value [2] was 4.05. For the same compound, the “590 nm absorbance normalized … 10 hr” value [2] was 4.25, the “590 nm absorbance normalized … 11 hr” value [2] was 4.63 and the “590 nm absorbance normalized to zero hour (substrate use), 1 hr” value [3] was 1.68. For the same compound, the “590 nm absorbance normalized … 2 hr” value [3] was 2.24, the “590 nm absorbance normalized … 3 hr” value [3] was 2.56 and the “590 nm absorbance normalized … 4 hr” value [3] was 2.71. For the same compound, the “590 nm absorbance normalized to zero hour (substrate use), 5 hr” value [3] was 3.13, the “590 nm absorbance normalized … 6 hr” value [3] was 3.31 and the “590 nm absorbance normalized to zero hour (substrate use), 7 hr” value [3] was 3.50. For the same compound, the “590 nm absorbance normalized … 8 hr” value [3] was 3.70, the “590 nm absorbance normalized … 9 hr” value [3] was 4.05 and the “590 nm absorbance normalized … 10 hr” value [3] was 4.25. For the same compound, the “590 nm absorbance normalized … 11 hr” value [3] was 4.63.
`OC[C@@H](O)[C@H](O)[C@@H](O)CO` [Xylitol] was tested, and the “590 nm absorbance normalized to zero hour (substrate use), 1 hr” value [1] was 1.02, the “590 nm absorbance normalized … 2 hr” value [1] was 1.53 and the “590 nm absorbance normalized … 3 hr” value [1] was 1.57. The “590 nm absorbance normalized … 4 hr” value [1] was 1.01, the “590 nm absorbance normalized … 6 hr” value [1] was 0.40 and the “590 nm absorbance normalized … 8 hr” value [1] was 1.49. The “590 nm absorbance normalized … 9 hr” value [1] was 1.02, the “590 nm absorbance normalized … 10 hr” value [1] was 0.97 and the “590 nm absorbance normalized … 11 hr” value [1] was 0.97. The “Substrate use, 590 nm absorbance normalized to zero hour, 1 hr” value [1] was 1.02, the “Substrate use, 590 nm absorbance normalized to zero hour, 5 hr” value [1] was 1.51 and the “Substrate use, 590 nm absorbance normalized to zero hour, 7 hr” value [1] was 1.01. The “Substrate use, 590 nm absorbance normalized to zero hour, 1 hr” value [4] was 1.69, the “Substrate use, 590 nm absorbance normalized to zero hour, 5 hr” value [4] was 3.95 and the “Substrate use, 590 nm absorbance normalized to zero hour, 7 hr” value [4] was 4.50. For the same compound, the “590 nm absorbance normalized to zero hour (substrate use), 1 hr” value [2] was 1.69, the “590 nm absorbance normalized … 2 hr” value [2] was 2.39 and the “590 nm absorbance normalized … 3 hr” value [2] was 3.14. The “590 nm absorbance normalized … 4 hr” value [2] was 3.34, the “590 nm absorbance normalized … 6 hr” value [2] was 4.25 and the “590 nm absorbance normalized … 8 hr” value [2] was 4.55. For the same compound, the “590 nm absorbance normalized … 9 hr” value [2] was 5.13, the “590 nm absorbance normalized … 10 hr” value [2] was 4.85 and the “590 nm absorbance normalized … 11 hr” value [2] was 5.48.
In the case of `CC(=O)C(C)O` (stereo not shown) [3-Hydroxy 2-Butanone], the “590 nm absorbance normalized to zero hour (substrate use), 1 hr” value [1] is reported as 1.49, the “590 nm absorbance normalized … 2 hr” value [1] is reported as 1.75 and the “590 nm absorbance normalized … 3 hr” value [1] is reported as 1.64. The “590 nm absorbance normalized … 4 hr” value [1] was 1.71, the “590 nm absorbance normalized … 6 hr” value [1] was 0.48 and the “590 nm absorbance normalized … 8 hr” value [1] was 1.86. For the same compound, the “590 nm absorbance normalized … 9 hr” value [1] was 7.44, the “590 nm absorbance normalized … 10 hr” value [1] was 7.39 and the “590 nm absorbance normalized … 11 hr” value [1] was 2.14. The “Substrate use, 590 nm absorbance normalized to zero hour, 1 hr” value [1] was 1.49, the “Substrate use, 590 nm absorbance normalized to zero hour, 5 hr” value [1] was 2.01 and the “Substrate use, 590 nm absorbance normalized to zero hour, 7 hr” value [1] was 1.80. For the same compound, the “590 nm absorbance normalized to zero hour (substrate use), 1 hr” value [5] was 1.24, the “590 nm absorbance normalized … 2 hr” value [5] was 1.65 and the “590 nm absorbance normalized … 3 hr” value [5] was 2.42. For the same compound, the “590 nm absorbance normalized … 4 hr” value [5] was 2.37, the “590 nm absorbance normalized to zero hour (substrate use), 5 hr” value [5] was 2.39 and the “590 nm absorbance normalized … 6 hr” value [5] was 2.28. The “590 nm absorbance normalized to zero hour (substrate use), 7 hr” value [5] was 2.37, the “590 nm absorbance normalized … 8 hr” value [5] was 2.01 and the “590 nm absorbance normalized … 9 hr” value [5] was 2.18. The “590 nm absorbance normalized … 10 hr” value [5] was 2.16, the “590 nm absorbance normalized … 11 hr” value [5] was 2.35 and the “590 nm absorbance normalized to zero hour (substrate use), 1 hr” value [3] was 1.24. The “590 nm absorbance normalized … 2 hr” value [3] was 1.65, the “590 nm absorbance normalized … 3 hr” value [3] was 2.42 and the “590 nm absorbance normalized … 4 hr” value [3] was 2.37. The “590 nm absorbance normalized to zero hour (substrate use), 5 hr” value [3] was 2.39, the “590 nm absorbance normalized … 6 hr” value [3] was 2.28 and the “590 nm absorbance normalized to zero hour (substrate use), 7 hr” value [3] was 2.37. For the same compound, the “590 nm absorbance normalized … 8 hr” value [3] was 2.01, the “590 nm absorbance normalized … 9 hr” value [3] was 2.18 and the “590 nm absorbance normalized … 10 hr” value [3] was 2.16. The “590 nm absorbance normalized … 11 hr” value [3] was 2.35.
`C[C@@H]1OC(O)[C@@H](O)[C@H](O)[C@@H]1O` (stereo partly drawn) [L-Fucose] was tested, and the “590 nm absorbance normalized to zero hour (substrate use), 0 hr” value [1] was 1.00, the “590 nm absorbance normalized to zero hour (substrate use), 1 hr” value [1] was 0.10 and the “590 nm absorbance normalized … 2 hr” value [1] was 0.20. For the same compound, the “590 nm absorbance normalized … 3 hr” value [1] was 0.18, the “590 nm absorbance normalized … 4 hr” value [1] was 0.18 and the “590 nm absorbance normalized … 6 hr” value [1] was 0.26. For the same compound, the “590 nm absorbance normalized … 8 hr” value [1] was 0.27, the “590 nm absorbance normalized … 9 hr” value [1] was 0.26 and the “590 nm absorbance normalized … 10 hr” value [1] was 0.24. For the same compound, the “590 nm absorbance normalized … 11 hr” value [1] was 0.26, the “Substrate use, 590 nm absorbance normalized to zero hour, 0 hr” value (Control (uninfected) NHBE cells, Biolog PMM2, 0 hr) was 1.00 and the “Substrate use, 590 nm absorbance normalized to zero hour, 1 hr” value [1] was 0.10. The “Substrate use, 590 nm absorbance normalized to zero hour, 5 hr” value [1] was 0.22, the “Substrate use, 590 nm absorbance normalized to zero hour, 7 hr” value [1] was 0.25 and the “590 nm absorbance normalized to zero hour (substrate use), 0 hr” value [5] was 1.00. The “590 nm absorbance normalized to zero hour (substrate use), 1 hr” value [5] was 0.21, the “590 nm absorbance normalized … 2 hr” value [5] was 0.28 and the “590 nm absorbance normalized … 3 hr” value [5] was 0.33. For the same compound, the “590 nm absorbance normalized … 4 hr” value [5] was 0.35, the “590 nm absorbance normalized to zero hour (substrate use), 5 hr” value [5] was 0.42 and the “590 nm absorbance normalized … 6 hr” value [5] was 0.45. The “590 nm absorbance normalized to zero hour (substrate use), 7 hr” value [5] was 0.47, the “590 nm absorbance normalized … 8 hr” value [5] was 0.50 and the “590 nm absorbance normalized … 9 hr” value [5] was 0.54. For the same compound, the “590 nm absorbance normalized … 10 hr” value [5] was 0.57, the “590 nm absorbance normalized … 11 hr” value [5] was 0.61 and the “590 nm absorbance normalized to zero hour (substrate use), 0 hr” value [3] was 1.00. For the same compound, the “590 nm absorbance normalized to zero hour (substrate use), 1 hr” value [3] was 0.21, the “590 nm absorbance normalized … 2 hr” value [3] was 0.28 and the “590 nm absorbance normalized … 3 hr” value [3] was 0.33. For the same compound, the “590 nm absorbance normalized … 4 hr” value [3] was 0.35, the “590 nm absorbance normalized to zero hour (substrate use), 5 hr” value [3] was 0.42 and the “590 nm absorbance normalized … 6 hr” value [3] was 0.45. The “590 nm absorbance normalized to zero hour (substrate use), 7 hr” value [3] was 0.47, the “590 nm absorbance normalized … 8 hr” value [3] was 0.50 and the “590 nm absorbance normalized … 9 hr” value [3] was 0.54. The “590 nm absorbance normalized … 10 hr” value [3] was 0.57 and the “590 nm absorbance normalized … 11 hr” value [3] was 0.61.
